Patent US7553860B2, “Substituted gamma lactams as therapeutic agents” (Allergan, Inc., priority 2006, dated 2009)

Tests used:
EP2 [1] = target: T1, EP2 (Homo sapiens, UniProt P43116); experiment: EP2 cAMP; format: cell-based
EP2 [2] = target: T1, EP2; experiment: EP2 competition binding ([3H]PGE2), Ki; parameters: expressed in transfected cells; host or cells: HEK 293; conditions: HEK 293 cells stably expressing human EP2, [3H]PGE2
Protocol: Competition binding experiments are performed in a medium containing Hank's balanced salt solution, Hepes 20 mM, pH 7.3, membranes (˜60 μg protein) or 2×10^5 cells from HEK 293 cells stably expressing human EP2 receptors, [^3H]PGE2 (10 nM) and various concentrations of test compounds in a total volume of 300 μl. Reaction mixtures are incubated at 23° C. for 60 min, and are filtered over Whatman GF/B filters under vacuum. Filters are washed three times with 5 ml ice-cold buffer containing 50 mM Tris/HCl (pH 7.3). Non-specific binding is estimated in the presence of excess unlabeled PGE2 (10 μM). Binding data fitted to the binding model for a single class of binding sites, using nonlinear regression analysis. IC50 values thus obtained are converted to Ki using the equation of Ki=(IC50/(1+[L]/KD) where [L] represents PGE2 concentration (10 nM) and KD the dissociation constant for [^3H]PGE2 at human EP2 receptors (40 nM). […]
The cell homogenate is centrifuged at 19000 r.p.m. for 20 min at 4° C. using a Beckman Ti-60 rotor. The resultant pellet is resuspended in TME buffer to give a final 1 mg/ml protein concentration, as determined by Biorad assay. […]
[^3H-] […] 17-phenyl PGF2[…] and non-specific binding determined with 10^−5M of unlabeled PGE2, or 17-phenyl PGF2α, according to receptor subtype studied.

hEP2/Gqs5 = target: T2, hEP2/Gqs5 (Homo sapiens, UniProt P43116); experiment: EP2 FLIPR calcium signal; format: cell-based; conditions: HEK-293(EBNA) cells
T2 construct: expressed in transfected cells; host or cells: HEK-293(EBNA)
T2 sequence (P43116 whole entry): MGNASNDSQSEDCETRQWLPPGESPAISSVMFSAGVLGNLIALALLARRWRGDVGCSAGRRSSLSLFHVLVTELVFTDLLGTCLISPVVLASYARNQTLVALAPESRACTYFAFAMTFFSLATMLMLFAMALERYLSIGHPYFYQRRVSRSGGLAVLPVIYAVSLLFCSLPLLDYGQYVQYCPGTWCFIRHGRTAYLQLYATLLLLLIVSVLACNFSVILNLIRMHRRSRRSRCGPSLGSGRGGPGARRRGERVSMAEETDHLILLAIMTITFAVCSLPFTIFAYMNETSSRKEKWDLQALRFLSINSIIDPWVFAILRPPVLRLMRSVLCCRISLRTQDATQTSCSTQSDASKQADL
Protocol: (§1) HEK-293(EBNA) cells, stably expressing one type or subtype of recombinant human prostaglandin receptors (prostaglandin receptors expressed: hDP/Gqs5; hEP1; hEP2/Gqs5; hEP3A/Gqi5; hEP4/Gqs5; hFP; hIP; hTP), are cultured in 100 mm culture dishes in high-glucose DMEM medium containing 10% fetal bovine serum, 2 mM I-glutamine, 250 μg/ml geneticin (G418) and 200 μg/ml hygromycin B as selection markers, and 100 units/ml penicillin G, 100 μg/ml streptomycin and 0.25 μg/ml amphotericin B.
(§2) Cells are seeded at a density of 5×10^4 cells per well in Biocoat® Poly-D-lysine-coated black-wall, clear-bottom 96-well plates (Becton-Dickinson) and allowed to attach overnight in an incubator at 37° C. Cells are then washed two times with HBSS-HEPES buffer (Hanks Balanced Salt Solution without bicarbonate and phenol red, 20 mM HEPES, pH 7.4) using a Denley Cellwash plate washer (Labsystems). […]
(§3) Cells are excited with an Argon laser at 488 nm, and emission is measured through a 510-570 nm bandwidth emission filter (FLIPR™, Molecular Devices, Sunnyvale, Calif.). […] The peak increase in fluorescence intensity is recorded for each well. […] The peak fluorescence change in each drug-containing well is then expressed relative to the controls. […]

hEP3A/Gqi5 = target: T3, hEP3A/Gqi5 (Homo sapiens, UniProt P43115); experiment: FLIPR calcium signal, hEP3A; format: cell-based; conditions: HEK-293(EBNA) cells; read-out: Other Receptors (EC50 in nM) hEP3A
T3 construct: expressed in transfected cells; host or cells: HEK-293(EBNA)
T3 sequence (P43115 1-390): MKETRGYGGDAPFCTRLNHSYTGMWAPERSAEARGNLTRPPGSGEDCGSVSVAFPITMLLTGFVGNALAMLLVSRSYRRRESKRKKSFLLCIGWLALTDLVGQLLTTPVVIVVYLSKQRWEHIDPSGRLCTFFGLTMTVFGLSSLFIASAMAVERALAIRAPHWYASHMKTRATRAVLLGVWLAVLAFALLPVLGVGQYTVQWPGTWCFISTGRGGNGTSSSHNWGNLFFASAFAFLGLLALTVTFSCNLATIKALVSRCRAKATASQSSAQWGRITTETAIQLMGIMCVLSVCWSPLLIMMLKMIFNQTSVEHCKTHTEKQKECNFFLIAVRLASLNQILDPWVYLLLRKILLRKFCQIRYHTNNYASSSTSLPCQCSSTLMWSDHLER
Protocol: as §1, §2, §3

hDP/Gqs5 = target: T4, hDP/Gqs5 (Homo sapiens, UniProt Q13258); experiment: FLIPR calcium signal, hDP; format: cell-based; conditions: HEK-293(EBNA) cells; read-out: Other Receptors (EC50 in nM) hDP
T4 construct: expressed in transfected cells; host or cells: HEK-293(EBNA)
T4 sequence (Q13258 1-359): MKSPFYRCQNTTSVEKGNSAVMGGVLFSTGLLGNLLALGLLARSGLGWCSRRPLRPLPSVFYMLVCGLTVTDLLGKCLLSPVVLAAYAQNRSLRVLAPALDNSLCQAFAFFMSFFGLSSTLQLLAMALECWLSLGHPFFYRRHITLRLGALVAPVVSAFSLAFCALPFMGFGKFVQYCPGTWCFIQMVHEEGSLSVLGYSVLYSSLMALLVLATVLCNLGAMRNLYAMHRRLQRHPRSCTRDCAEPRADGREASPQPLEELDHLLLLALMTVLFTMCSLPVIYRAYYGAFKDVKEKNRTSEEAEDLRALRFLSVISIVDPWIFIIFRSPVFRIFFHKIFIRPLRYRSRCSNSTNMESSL
Protocol: as §1, §2, §3

T1 sequence (P43116 whole entry): as the sequence (P43116 whole entry) above

EC50 (EP2 [1])	Ki (EP2 [2])	EC50 (hEP2/Gqs5)	EC50 (hEP3A/Gqi5)	EC50 (hDP/Gqs5)	SMILES
13 nM	1040 nM	–	–	–	CCCCCC(F)c1ccc(N2C(=O)OC[C@@H]2COCc2ccc(C(=O)O)s2)cc1 (stereo partly drawn) [5-{(S)-3-[4-(1-Fluoro-hexyl)-phenyl]-2-oxo-oxazolidin-4-ylmethoxymethyl}-thiophene-2-carboxylic acid]
14 nM	2710 nM	817 nM	995 nM	> 10000 nM	CCCCCC(O)c1ccc(N2C(=O)OC[C@@H]2COCc2ccc(C(=O)O)s2)cc1 (stereo partly drawn) [5-{(S)-3-[4-(1-Hydroxy-hexyl)-phenyl]-2-oxo-oxazolidin-4-ylmethoxymethyl}-thiophene-2-carboxylic acid]
